Measurements from paper PMC10728895, “Stapled Phd Peptides Inhibit Doc Toxin Induced Growth Arrest in Salmonella” (ACS Chemical Biology, 2023).
Entries after “also recorded” stand apart in the source; their conditions may differ. Positions of bridges follow the written chain, without caps; N, C: chain ends. Non-standard residues stand in square brackets, D forms with d. Residues, ends and D or L forms follow the SMILES beside them. S5 = C=CCCC[C@](C)(N)C(=O)O; Nle = CCCC[C@H](N)C(=O)O

What was measured:
DocSTm toxin = settings: DocSTm 5 μM, peptide 50 μM; for Average Tm of DocSTm in the presence of peptide: pH 8.0, average ± SD, replicates 3-48 (Table S3)
Outline: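 Thermal shift with 5 μM recombinant Doc toxin and 50 μM Phd peptides in 20 mM K2HPO4, 50 mM (NH4)2SO4, pH 8.0, SYPRO Orange 3×, ramped 25–95 °C. Tm from Boltzmann fit; ΔTm is peptide-bound minus free DocSTm Tm, triplicates.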

[1] = test system: DocSTm (phosphorylation of EF-TuSTm); assay: Dot blot EF-Tu phosphorylation assay; type: biochemical, Salmonella Typhimurium; settings: DocSTm 1 μM, EF-TuSTm 3 μM, peptide 10 μM to 5 nM (3-fold dilutions), 16 h RT, dot blot anti-phosphothreonine; compared at three times the DocSTm concentration; two independent experiments
[2] = test system: S. typhimurium (14028s) Δphd-doc::Km strain expressing DocSTm (pBAD33::doc); assay: Growth rescue experiments in DocSTm-expressing S. typhimurium; type: cell-based; settings: three independent experiments; for Rescue from DocSTm-induced growth inhibition (OD600): 10 μM synthetic peptide, 24 h, 37 °C, start OD600 0.1, M9 minimal medium with 0.5% arabinose
Experimental: S. typhimurium (14028s) Δphd-doc::Km strains carrying pCA24N (empty vector or encoding for the Phd^52–73 variant) and pBAD33::doc plasmids were grown overnight in LB medium containing 1% glucose and supplemented with 100 μg/mL carbenicillin and 34 μg/mL chloramphenicol antibiotics. Cultures were then diluted to an OD600 of approximately 0.1 into 200 μL of fresh M9 minimal medium supplemented with 0.5% arabinose, 100 μg/mL carbenicillin, 34 μg/mL chloramphenicol, and containing 2 or 10 μM of the indicated synthetic Phd^52–73 peptide. Untreated DocSTm-expressing S. typhimurium as well as S. typhimurium coexpressing Doc and Phd^52–73 peptides were included as controls in each experiment. After 2 h of incubation at RT, samples were transferred to a flat-bottom 96-well plate (Greiner), and OD600 was monitored every 15 min for 24 h at 37 °C using an Infinite M Plex plate reader (Tecan LifeScience) and orbital shaking with 1 mm amplitude. Peptides were tested in three independent experiments.

Question: For CCCC[C@H](NC(=O)[C@H](Cc1c[nH]c2ccccc12)NC(C)=O)C(=O)N[C@@H](CC(=O)O)C(=O)N[C@@H](CC(=O)O)C(=O)N[C@@H](CCC(=O)O)C(=O)N[C@@H](Cc1ccccc1)C(=O)N[C@@H](C)C(=O)N[C@@H](C)C(=O)N[C@H](C(=O)N[C@@H](CCCC)C(=O)N[C@@H](C)C(=O)N[C@H](C(=O)N[C@@H](Cc1c[nH]cn1)C(=O)NCC(=O)N[C@@H](CC(N)=O)C(=O)N[C@@H](CCC(=O)O)C(=O)N[C@@H](CC(C)C)C(=O)N[C@@H](CCCNC(=N)N)C(=O)N[C@@H](CCC(=O)O)C(=O)N[C@@H](CC(C)C)C(=O)N[C@@H](C)C(=O)N[C@@H](CC(=O)O)C(=O)N[C@@H](CCCCN)C(=O)O)C(C)C)[C@@H](C)CC [Peptide 1] (Ac-W[Nle]DDEFAAI[Nle]AVHGNELRELADK-OH), which “ΔTm (thermal shift) of DocSTm in the presence of peptide” value (DocSTm toxin; SYPRO Orange 3×, 20 mM K2HPO4, 50 mM (NH4)2SO4, pH 8.0, average Tm with peptide minus average Tm of free DocSTm, mean ± SD) is on record?
Answer: 28.8 ± 2.7 °C

Question: What about the “Average Tm of DocSTm in the presence of peptide” value (DocSTm toxin) of the same compound?
Answer: 71.0 ± 1.1 °C

Question: What about the “Inhibition of EF-TuSTm phosphorylation by DocSTm (concentration needed for full inhibition)” value [1] of the same compound?
Answer: fully inhibited

Question: And the “Rescue from DocSTm-induced growth inhibition (OD600)” value [2]?
Answer: consistent and full rescue; also recorded: growth rescue was also observed

Question: What does the source list for CCCC[C@H](NC(=O)[C@H](Cc1c[nH]c2ccccc12)NC(C)=O)C(=O)N[C@@H](CC(N)=O)C(=O)N[C@@H](CC(N)=O)C(=O)N[C@@H](CCC(=O)O)C(=O)N[C@@H](Cc1ccccc1)C(=O)N[C@@]1(C)CCCC=CCCC[C@@](C)(C(=O)N[C@H](C(=O)N[C@@H](Cc2c[nH]cn2)C(=O)NCC(=O)N[C@@H](CCCNC(=N)N)C(=O)N[C@@H](CCC(N)=O)C(=O)N[C@@H](CC(C)C)C(=O)N[C@@H](CCCNC(=N)N)C(=O)N[C@@H](CCCNC(=N)N)C(=O)N[C@@H](CC(C)C)C(=O)N[C@@H](C)C(=O)N[C@@H](CCCNC(=N)N)C(=O)N[C@@H](CCCCN)C(=O)O)C(C)C)NC(=O)[C@H](CCCC)NC(=O)[C@H]([C@@H](C)CC)NC(=O)[C@H](C)NC1=O [Peptide 36] (Ac-W[Nle]NNEF[S5]AI[Nle][S5]VHGRQLRRLARK-OH; staple 7-11)?
Answer: Average Tm of DocSTm in the presence of peptide (DocSTm toxin): 61.3 ± 1.1 °C; Growth rescue kinetics ([2]; 10 μM peptide, growth curves over 24 h at 37 °C): faster growth rescue than peptide 1; also recorded: more rapidly than 1; also recorded: faster rate than the unmodified peptide 1; Rescue from DocSTm-induced growth inhibition (OD600) [2]: reproducibly rescued DocSTm-induced growth arrest; also recorded: growth rescue was also observed; also recorded: fully rescued
